Source: article PMC6613765 (Journal of Virology, 2019)
Where a name gives a salt, the structure may show the parent alone. Read-outs that look alike come from different tables or passages of the source.

Key:
HCoV-NL63 [1] = test: microbe, parasite or virus in culture; conditions: Human coronavirus NL63, LLC-MK2, 72 h, read-out: HCoV-NL63 EC50
MHV-A59 [2] = test: microbe, parasite or virus in culture; conditions: Murine coronavirus, 72 h, read-out: MHV-A59 EC50
in vitro = conditions: mouse
[3] = system: four CoVs (HCoV-OC43, HCoV-NL63, MERS-CoV, MHV-A59); test: organism not typed; assay type: cell-based; conditions: read-out: EC50 values against all CoVs
HCoV-NL63 [4] = conditions: for EC50: read-out: HCoV-NL63 EC50
HCoV-OC43-WT [5] = system: HCoV-OC43-WT; parameters: species or system BALB/c mice
MHV-A59 [6] = conditions: for EC50: read-out: MHV-A59 EC50
HCoV-OC43-WT [7] = conditions: for EC50: read-out: HCoV-OC43 EC50
MERS-CoV [8] = conditions: for EC50: read-out: MERS-CoV EC50
rOC43-ns2Del-Rluc = assay type: in vivo, BALB/c mice
MERS-CoV [9] = conditions: read-out: EC50, MERS-CoV; cited from earlier work
HCoV-229E = conditions: read-out: EC50, HCoV-229E; CoV-infected human primary cells; cited from earlier work
SARS-CoV [10] = conditions: cited from earlier work
SARS-CoV [11] = conditions: mouse, in vivo; cited from earlier work
MERS-CoV [12] = conditions: cited from earlier work
[13] = system: pseudotyped MERS-CoV (HIV-1 backbone, spike protein of MERS-CoV); assay type: cell-based

| Compound | EC50 (HCoV-NL63 [1]) | EC50 (MHV-A59 [2]) | CC50 (in vitro) | other results |
| --- | --- | --- | --- | --- |
| CCN(CC)CCNc1ccc(CO)c2sc3ccccc3c(=O)c12 [Hycanthone] | 5.76 µM | 5.78 µM | 4.19 µM | – |
| CCCCCCOc1ccccc1C(N)=O [Exalamide] | 17.5 µM | 16.4 µM | > 20 µM | – |
| O=C(/C=C/c1ccccc1)c1ccc(O)cc1 [4'-Hydroxychalcone] | 7.25 µM | 9.75 µM | > 20 µM | – |
| COc1c(C)c2c(c(O)c1C/C=C(\C)CCC(=O)O)C(=O)OC2 [Mycophenolic acid] | 0.18 µM | 0.17 µM | 4.18 µM | EC50 [3]: < 5 µM; CC50 (LLC-MK2 cells; rhesus monkey): 3.44 µM; CC50 (BHK-21 cells; hamster): 3.55 µM; SI (CC50/EC50), HCoV-NL63 (HCoV-NL63 [4]): 19.11 |
| CCCCCC[C@H]1C(=O)O[C@H](C)[C@H](NC(=O)c2cccc(NC=O)c2O)C(=O)O[C@@H](C)[C@@H]1OC(=O)CC(C)C [Antimycin A] | 6.05 µM | 5.42 µM | 3.98 µM | – |
| CNCCCN1c2ccccc2CCc2ccccc21 [Desipramine] | 6.68 µM | 8.75 µM | > 20 µM | – |
| CCN(CC)CCCC(C)Nc1ccnc2cc(Cl)ccc12 (stereo not shown) [Chloroquine] | 4.89 µM | 15.9 µM | > 20 µM | antiviral activity in vivo, positive control (HCoV-OC43-WT [5]; mouse): showed antiviral activity |
| Monensin sodium | – | – | – | EC50 (MHV-A59 [6]): 0.18 µM; EC50 (HCoV-OC43-WT [7]): 3.81 µM; EC50 (MERS-CoV [8]): 3.27 µM; EC50 [3]: < 5 µM; EC50 (HCoV-NL63 [4]): 1.54 µM |
| CC(C)[C@@H]1NC(=O)[C@H](C)OC(=O)[C@@H](C(C)C)NC(=O)[C@@H](C(C)C)OC(=O)[C@H](C(C)C)NC(=O)[C@H](C)OC(=O)[C@@H](C(C)C)NC(=O)[C@@H](C(C)C)OC(=O)[C@H](C(C)C)NC(=O)[C@H](C)OC(=O)[C@@H](C(C)C)NC(=O)[C@@H](C(C)C)OC1=O [Valinomycin] | 1.89 µM | 6.78 µM | 5.11 µM | – |
| O[C@H]1[C@H]2c3cc4c(cc3CN3CCC(=C[C@@H]1O)[C@H]23)OCO4 [Lycorine] | 0.47 µM | 0.31 µM | 3.51 µM | SI (CC50/EC50), HCoV-OC43 (HCoV-OC43-WT [7]): 29.13; HCoV-OC43 nucleocapsid protein in mouse brain coronal sections (IHC) (HCoV-OC43-WT [5]; in vivo): present only in the PBS-DMSO-treated group, not in the lycorine-treated group; viral loads in the brain and spinal cord (HCoV-OC43-WT [5]; mouse, in vivo): under the limit of detection; CC50 (LLC-MK2 cells; rhesus monkey): 3.81 µM; CC50 (BHK-21 cells; hamster): 4.37 µM; bioluminescence signal in the brain (rOC43-ns2Del-Rluc; 15 mg/kg daily, 2, 3 and 4 days postinoculation): no signal was detected; Rluc activity in PBS-DMSO-treated mice relative to treated mice (rOC43-ns2Del-Rluc; mouse brain, 72 h postinoculation, 15 mg/kg): ~2 × 10^5 fold |
| Clc1ccccc1CN1CCc2sccc2C1 [Ticlopidine] | 15.7 µM | 14.3 µM | > 20 µM | – |
| C=CCc1ccccc1OCC(O)CNC(C)C (stereo not shown) [Alprenolol] | 11.9 µM | 14 µM | > 20 µM | – |
| COc1ccc2cc1Oc1ccc(cc1)C[C@H]1c3cc(c(OC)cc3CCN1C)Oc1c(OC)c(OC)cc3c1[C@H](C2)N(C)CC3 [Tetrandrine] | 2.05 µM | 4.81 µM | > 20 µM | – |
| COc1ccc(Cc2nccc3cc(OC)c(OC)cc23)cc1OC [Papaverine] | 7.32 µM | 11.5 µM | 12.4 µM | – |
| Nc1ccc(/N=N/c2ccccc2)c(N)n1 [Phenazopyridine] | 2.02 µM | 0.77 µM | > 20 µM | SI (CC50/EC50), MHV-A59 (MHV-A59 [6]): > 25.97; EC50 [3]: < 5 µM; CC50 (LLC-MK2 cells; rhesus monkey): > 20 µM; CC50 (BHK-21 cells; hamster): > 20 µM |
| COc1cc2c3cc1Oc1c(OC)c(OC)cc4c1[C@@H](Cc1ccc(O)c(c1)Oc1ccc(cc1)C[C@@H]3N(C)CC2)N(C)CC4 [Berbamine] | 9.46 µM | 10.9 µM | > 20 µM | – |
| COc1ccc2c(c1)[nH]c1c(C)nccc12 [Harmine] | 13.5 µM | 13.8 µM | > 20 µM | – |

| Compound | EC50 (HCoV-NL63 [1]) | EC50 (MHV-A59 [2]) | CC50 (in vitro) | other results |
| --- | --- | --- | --- | --- |
| C[C@H]1[C@H]2CC[C@H]3[C@@H]4CC=C5C[C@@H](N(C)C)CC[C@]5(C)[C@H]4CC[C@]23CN1C [Conessine] | 10.8 µM | 11.5 µM | > 20 µM | – |
| COC(=O)[C@H]1[C@@H](O)[C@@]2(O)c3c(OC)cc(O[C@@H]4O[C@@H]([C@H](O)CO)CO[C@H]4OC)cc3O[C@@]2(c2ccc(OC)cc2)[C@@H]1c1ccccc1 [silvestrol] | – | – | – | EC50 (MERS-CoV [9]): 0.0013 µM; EC50 (HCoV-229E): 0.003 µM |
| CC(=O)Oc1cc2c(c(C)c1OC(C)=O)CC=C1[C@@]2(C)CC[C@@]2(C)C3C[C@](C)(C(=O)O)CC[C@]3(C)CC[C@]12C (stereo partly shown) [Dihydrocelastryl diacetate] | – | – | – | CC50 (Vero E6 cells): > 20 µM; EC50 (MHV-A59 [6]): 4.24 µM; CC50 (DBT cells): > 20 µM; EC50 (HCoV-OC43-WT [7]): 1.71 µM; EC50 (MERS-CoV [8]): 10.6 µM; CC50 (LLC-MK2 cells): > 20 µM; CC50 (BHK-21 cells): > 20 µM; EC50 (HCoV-NL63 [4]): 0.65 µM |
| CC(=O)[O][Hg][c]1ccccc1 [Phenylmercuric acetate] | – | – | – | CC50 (Vero E6 cells): 5.39 µM; EC50 (MHV-A59 [6]): 6.81 µM; CC50 (DBT cells): 5.97 µM; EC50 (HCoV-OC43-WT [7]): 2.17 µM; EC50 (MERS-CoV [8]): 6.44 µM; CC50 (LLC-MK2 cells): 5.47 µM; CC50 (BHK-21 cells): 5.35 µM; EC50 (HCoV-NL63 [4]): 6.79 µM |
| COc1c(C)c2c(c(O)c1C/C=C(\C)CCC(=O)OCCN1CCOCC1)C(=O)OC2 [Mycophenolate mofetil] | 0.23 µM | 0.27 µM | 3.33 µM | EC50 [3]: < 5 µM; CC50 (LLC-MK2 cells; rhesus monkey): 3.01 µM; CC50 (BHK-21 cells; hamster): 3.43 µM |
| CC[C@H]1/C=C/C=C/C[C@@H](C)[C@H](O)[C@@](C)(O)C(=O)[C@@H](C)[C@H](O)[C@@H](C)C(=O)[C@@H](C)[C@H](O)[C@@H](C)/C=C/C(=O)O[C@@H]2[C@H](C)[C@H](CC1)O[C@]1(CC[C@H](C)[C@H](C[C@@H](C)O)O1)[C@H]2C [Oligomycin] | 2.63 µM | 6.43 µM | 6.78 µM | – |
| COC(=O)[C@]1(C)CC[C@]2(C)CC[C@]3(C)C4=CC=C5C(=CC(=O)C(O)=C5C)[C@]4(C)CC[C@@]3(C)[C@@H]2C1 [Pristimerin] | 1.63 µM | 9.17 µM | > 20 µM | – |
| COc1cc2nc(N3CCN(C(=O)C4COc5ccccc5O4)CC3)nc(N)c2cc1OC (stereo not shown) [Doxazosin mesylate] | 14 µM | 14.5 µM | > 20 µM | – |
| CCC(CC)COC(=O)[C@H](C)N[P@](=O)(OC[C@H]1O[C@@](C#N)(c2ccc3c(N)ncnn23)[C@H](O)[C@@H]1O)Oc1ccccc1 [GS-5734] | – | – | – | IC50, SARS-CoV replication (SARS-CoV [10]): submicromolar; lung viral load (SARS-CoV [11]): significantly reduced the lung viral load; IC50, MERS-CoV replication (MERS-CoV [12]): submicromolar |
| CN(C)CCCN1c2ccccc2Sc2ccccc21 [Promazine] | 1.37 µM | 0.51 µM | > 20 µM | – |
| CCN(CC)CCOc1ccc2c(c1)C(=O)c1cc(OCCN(CC)CC)ccc1-2 [Tilorone] | 6.89 µM | 16.1 µM | > 20 µM | – |
| Cc1cc(/C=C/c2ccc3cc(N(C)C)ccc3[n+]2C)c(C)n1-c1ccccc1 [Pyrvinium pamoate] | 3.35 µM | – | – | EC50 [3]: < 5 µM |
| CC[C@@H](C(=O)[C@@H](C)[C@@H](O)[C@H](C)[C@@H]1O[C@@H]([C@@H](CC)C(=O)O)CC[C@@H]1C)[C@H]1O[C@]2(C=C[C@@H](O)[C@]3(CC[C@@](C)([C@H]4CC[C@](O)(CC)[C@H](C)O4)O3)O2)[C@H](C)C[C@@H]1C [Salinomycin sodium] | 5.71 µM | 5.16 µM | 2.45 µM | – |
| O=C(Nc1ccccc1)OCC(CN1CCCCC1)OC(=O)Nc1ccccc1 (stereo not shown) [Diperodon] | 4.91 µM | 1.98 µM | 14.5 µM | – |
| CN(C)CCN(Cc1ccc(Cl)cc1)c1ccccn1 [Chloropyramine] | 14.2 µM | 2.42 µM | > 20 µM | – |
| C[C@@H]1C[C@@H]([C@H](O)CC2CC(=O)NC(=O)C2)C(=O)[C@@H](C)C1 [Cycloheximide] | 2.64 µM | 5.21 µM | 3.19 µM | – |
| CC[C@H]1CN2CCc3cc(OC)c(OC)cc3[C@@H]2C[C@@H]1C[C@H]1NCCc2cc(OC)c(OC)cc21 [Emetine] | 1.43 µM | 0.12 µM | 3.51 µM | luciferase activity reduced compared with control [13]: 50 fold; SI (CC50/EC50), MERS-CoV (MERS-CoV [8]): 9.06; EC50 [3]: < 5 µM; CC50 (LLC-MK2 cells; rhesus monkey): 3.63 µM; CC50 (BHK-21 cells; hamster): 2.69 µM |
